How the values were obtained:
CaFLS [1] = molecular target: T1, CaFLS (Camellia sinensis, UniProt A0A3G1RNB1); experiment: UPLC-MS product formation, Lineweaver-Burk; type: biochemical; conditions: tamarixetin formation (main product); Tris-HCl pH 7.5, 23 °C
T1 construct: gene FLS; synthetic gene in pET-28a(+) (NcoI/XhoI), expressed in E. coli BL21(DE3); 331 residues; mutants carry fragments of AnFNS I
Text: (§1) UPLC-MS product formation, Lineweaver-Burk on CaFLS

CaFLS [2] = molecular target: T1, CaFLS; experiment: UPLC-MS product formation, Lineweaver-Burk; type: biochemical; conditions: Tris-HCl pH 7.5, 23 °C
Text: as §1

T1 sequence (A0A3G1RNB1 entry or part of it): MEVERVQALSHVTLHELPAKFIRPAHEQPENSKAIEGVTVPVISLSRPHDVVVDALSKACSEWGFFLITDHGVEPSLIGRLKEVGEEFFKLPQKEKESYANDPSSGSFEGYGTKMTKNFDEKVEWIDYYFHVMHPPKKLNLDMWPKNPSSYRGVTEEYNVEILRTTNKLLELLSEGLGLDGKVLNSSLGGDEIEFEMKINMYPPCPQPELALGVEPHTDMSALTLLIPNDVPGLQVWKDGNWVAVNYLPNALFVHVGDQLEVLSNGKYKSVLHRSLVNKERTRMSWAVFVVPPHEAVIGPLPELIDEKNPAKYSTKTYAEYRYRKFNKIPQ

## COc1ccc([C@@H]2CC(=O)c3c(O)cc(O)cc3O2)cc1O [hesperetin]
CaFLS [1]
  Km: 68.5 µM
CaFLS [2]; diosmetin formation (main product)
  Km: 65.4 µM
CaFLS [2]; tamarixetin formation (main product)
  Km: 66.4 µM
